In US20020132809A1, “Heterocyclic carboxamide derivatives as inhibitors of nitric oxide production” (Fujisawa Pharmaceutical Co. Ltd., priority 1998, published 2002):

| SMILES | melting point |
| --- | --- |
| CCn1c(-c2ccc(-n3ccnc3)cc2)cnc1[C@H](Cc1ccccn1)N(C=O)c1cc2cc([N+](=O)[O-])ccc2o1.Cl.Cl.Cl | 190 to 200 °C |
| CCn1c(-c2ccc(-n3ccnc3)cc2)cnc1[C@H](Cc1ccccn1)N(C=O)c1cc2cc(OC)ccc2o1.Cl.Cl.Cl | 190 to 195 °C |
| CCn1c(-c2ccc(-n3ccnc3)cc2)cnc1[C@H](Cc1ccccn1)N(C=O)c1cc2cc(Cl)ccc2o1.Cl.Cl.Cl | 198 to 203 °C |
| Cn1c(-c2ccc(-c3ccccc3)cc2)cnc1[C@H](Cc1ccccn1)N(C=O)c1cc2cc(Br)ccc2o1 [Compound (b), (1S)-N-[1-[5-(4-biphenylyl)-1-methylimidazol-2-yl]-2-(2-pyridyl)ethyl](5-bromobenzo[b]furan-2-yl)formamide] | 180.5 to 181.5 °C |
| Cn1c(-c2ccc(-n3ccnc3)cc2)cnc1[C@H](Cc1ccccn1)N(C=O)c1cc2ccccc2s1 [Compound (c), (1S)-(benzo[b]thiophen-2-yl)-N-[1-[5-[4-(1-imidazolyl) -phenyl]-1-methylimidazol-2-yl]-2-(2-pyridyl)ethyl]formamide] | 190 to 193 °C |
| Cn1c(-c2ccc(-n3ccnc3)cc2)cnc1[C@H](Cc1ccccn1)N(C=O)c1cc2cc([N+](=O)[O-])ccc2s1 [Compound (d), (1S)-N-[1-[5-[4-(1-imidazolyl)phenyl]-1-methylimidazol-2-yl]-2-(2-pyridyl)ethyl](5-nitrobenzo[b]thiophen-2-yl)formamide] | 228 to 231 °C |
| CCn1c(-c2ccc(-n3ccnc3)cc2)cnc1[C@H](Cc1ccncc1)N(C=O)c1cc2ccccc2[nH]1 [Compound (e), (1S)-N-[1-[1-ethyl-5-[4-(1-imidazolyl)phenyl]imidazol-2-yl]-2-(4-pyridyl)ethyl](indol-2-yl)formamide] | 255 to 260 °C (dec.) |
| COc1ccc2oc(N(C=O)[C@@H](Cc3ccccn3)c3ncc(-c4ccc([N+](=O)[O-])cc4)n3C)cc2c1 [Compound (f), (1S)-(5-methoxybenzo[b]furan-2-yl)-N-[1-[1-methyl-5-(4-nitrophenyl)imidazol-2-yl]-2-(2-pyridyl)ethyl]formamide] | 210 to 211 °C |
| Cn1c(-c2ccc(N3CCOCC3)cc2)cnc1[C@H](Cc1ccccn1)N(C=O)c1cc2cc(Br)ccc2o1 [Example 2, (1S)-(5-Bromobenzo[b]furan-2-yl)-N-[1-[1-methyl-5-(4-morpholinophenyl)imidazol-2-yl]-2-(2-pyridyl)ethyl]formamide] | 173 to 174 °C |
| COc1ccc2oc(N(C=O)[C@@H](Cc3ccccn3)c3ncc(-c4ccc(N5CCOCC5)cc4)n3C)cc2c1 [Example 3, (1S)-(5-Methoxybenzo[b]furan-2-yl)-N-[1-[1-methyl-5-(4-morpholinophenyl)imidazol-2-yl]-2-(2-pyridyl)ethyl]formamide] | 122 to 124 °C |
| Cn1c(-c2ccc(N3CCOCC3)cc2)cnc1[C@H](Cc1ccccn1)N(C=O)c1cc2cc(F)ccc2o1 [Example 4, (1S)-(5-Fluorobenzo[b]furan-2-yl)-N-[1-[1-methyl-5-(4-morpholinophenyl)imidazol-2-yl]-2-(2-pyridyl)ethyl]formamide] | 130 to 132 °C |
| Cc1ccc2oc(N(C=O)[C@@H](Cc3ccccn3)c3ncc(-c4ccc(N5CCOCC5)cc4)n3C)cc2c1 [Example 5, (1S)-(5-Methylbenzo[b]furan-2-yl)-N-[1-[1-methyl-5-(4-morpholinophenyl)imidazol-2-yl]-2-(2-pyridyl)ethyl]formamide] | 125 to 127 °C |
| Cn1c(-c2ccc(N3CCOCC3)cc2)cnc1[C@H](Cc1ccccn1)N(C=O)c1nc2cc(Cl)ccc2s1 [Example 6, (1S)-(5-Chlorobenzothiazol-2-yl)-N-[1-[1-methyl-5-(4-morpholinophenyl)imidazol-2-yl]-2-(2-pyridyl)ethyl]formamide] | 96 to 99 °C |
| COc1ccc2oc(N(C=O)[C@@H](Cc3ccccn3)c3ncc(-c4ccc(-c5ccccc5)cc4)n3C)cc2c1 [Example 9, (1S)-N-[1-[5-(4-Biphenylyl)-1-methylimidazol-2-yl]-2-(2-pyridyl)-ethyl](5-methoxybenzo[b]furan-2-yl)formamide] | 150 to 152 °C |
| Cn1c(-c2ccc(-c3ccccc3)cc2)cnc1[C@H](Cc1ccccn1)N(C=O)c1cc2cc(Cl)ccc2o1 [Example 10, (1S)-N-[1-[5-(4-Biphenylyl)-1-methylimidazol-2-yl]-2-(2-pyridyl)-ethyl](5-chlorobenzo[b]furan-2-yl)formamide] | 171 to 174 °C |
| Cn1c(-c2ccc(-n3ccnc3)cc2)cnc1[C@H](Cc1ccccn1)N(C=O)c1cc2ccc(Cl)cc2o1 [Example 11, (1S)-(6-Chlorobenzo[b]furan-2-yl)-N-[1-[5-[4-(1-imidazolyl)-phenyl]-1-methylimidazol-2-yl]-2-(2-pyridyl)ethyl]formamide] | 165 to 169 °C |

| SMILES | melting point |
| --- | --- |
| Cn1c(-c2ccc([N+](=O)[O-])cc2)cnc1[C@H](Cc1ccccn1)N(C=O)c1cc2cc(Cl)ccc2o1 [Example 12, (1S)-(5-Chlorobenzo[b]furan-2-yl)-N-[1-[1-methyl-5-(4-nitrophenyl)imidazol-2-yl]-2-(2-pyridyl)ethyl]formamide] | 199 to 201 °C |
| Cc1nccn1-c1ccc(-c2cnc([C@H](Cc3ccccn3)N(C=O)c3cc4ccccc4[nH]3)n2C)cc1 [Example 14, (1S)-(Indol-2-yl)-N-[1-[1-methyl-5-[4-(2-methylimidazol-1-yl)-phenyl]imidazol-2-yl]-2-(2-pyridyl)ethyl]formamide] | 207 to 211 °C |
| Cc1nccn1-c1ccc(-c2cnc([C@H](Cc3ccccn3)N(C=O)c3cc4ccccc4o3)n2C)cc1 [Example 15, (1S)-(Benzo[b]furan-2-yl)-N-[1-[1-methyl-5-[4-(2-methylimidazol-1-yl)phenyl]imidazol-2-yl]-2-(2-pyridyl)ethyl]formamide] | 167 to 171 °C |
| Cn1c(-c2ccc(-c3ccco3)cc2)cnc1[C@H](Cc1ccccn1)N(C=O)c1cc2cc(Cl)ccc2o1 [Example 16, (1S)-(5-Chlorobenzo[b]furan-2-yl)-N-[1-[5-[4-(2-furyl)phenyl]-1-methylimidazol-2-yl]-2-(2-pyridyl)ethyl]formamide] | 144 to 146 °C |
| Cn1c(-c2ccc(-c3cccs3)cc2)cnc1[C@H](Cc1ccccn1)N(C=O)c1cc2cc(Cl)ccc2o1 [Example 17, (1S)-(5-Chlorobenzo[b]furan-2-yl)-N-[1-[1-methyl-5-[4-(2-thienyl)-phenyl]imidazol-2-yl]-2-(2-pyridyl)ethyl]formamide] | 110 to 114 °C |
| Cn1c(-c2ccc(-c3nccs3)cc2)cnc1[C@H](Cc1ccccn1)N(C=O)c1cc2cc(Cl)ccc2o1 [Example 18, (1S)-(5-Chlorobenzo[b]furan-2-yl)-N-[1-[1-methyl-5-[4-(2-thiazolyl)phenyl]imidazol-2-yl]-2-(2-pyridyl)ethyl]formamide] | 144 to 146 °C |
| Cn1c(-c2ccc(N3CCOCC3)c(F)c2)cnc1[C@H](Cc1ccccn1)N(C=O)c1cc2cc(Cl)ccc2o1 [Example 19, (1S)-(5-Chlorobenzo[b]furan-2-yl)-N-[1-[5-(3-fluoro-4-morpholinophenyl)-1-methylimidazol-2-yl]-2-(2-pyridyl)ethyl]formamide] | 134 to 135 °C |
| Cn1c(-c2cccs2)cnc1[C@H](Cc1ccccn1)N(C=O)c1cc2cc(Cl)ccc2o1 [Example 20, (1S)-(5-Chlorobenzo[b]furan-2-yl)-N-[1-[1-methyl-5-(2-thienyl)-imidazol-2-yl]-2-(2-pyridyl)ethyl]formamide] | 70 to 74 °C |
| Cn1ccnc1-c1ccc(-c2cnc([C@H](Cc3ccccn3)N(C=O)c3cc4ccccc4[nH]3)n2C)cc1 [Example 22, (1S)-(Indol-2-yl)-N-[1-[5-[4-(1-methylimidazol-2-yl)phenyl]-1-methylimidazol-2-yl]-2-(2-pyridyl)ethyl]formamide] | 218 to 222 °C |
| Cc1nc([C@H](Cc2ccccn2)N(C=O)c2cc3ccccc3[nH]2)n(C)c1-c1ccc(-n2ccnc2)cc1 [Example 23, (1S)-N-[1-[5-[4-(1-Imidazolyl)phenyl]-1,4-dimethylimidazol-2-yl]-2-(2-pyridyl)ethyl](indol-2-yl)formamide] | 156 to 157 °C |
| Cn1c(-c2ccc(-n3ccnc3)cc2)cnc1[C@H](Cc1ccccn1)N(C=O)c1cc2cc(C=O)ccc2o1 [Example 24, (1S)-(5-Formylbenzo[b]furan-2-yl)-N-[1-[5-[4-(1-imidazolyl)-phenyl]-1-methylimidazol-2-yl]-2-(2-pyridyl)ethyl]formamide] | 194 to 197 °C |
| Cn1c(-c2ccc(-n3ccnc3)cc2)cnc1[C@H](Cc1ccccn1)N(C=O)c1cc2cc(C#N)ccc2o1 [Example 25, (1S)-(5-Cyanobenzo[b]furan-2-yl)-N-[1-[5-[4-(1-imidazolyl)-phenyl]-1-methylimidazol-2-yl]-2-(2-pyridyl)ethyl]formamide] | 174 to 176 °C |
| Cn1c(-c2ccc(-n3ccnc3)cc2)cnc1[C@H](Cc1ccccn1)N(C=O)c1cc2cccnc2o1 [Example 27, (1S)-(Furo[2,3-b]pyridin-2-yl)-N-[1-[5-[4-(1-imidazolyl)phenyl]-1-methylimidazol-2-yl]-2-(2-pyridyl)ethyl]formamide] | 108 to 110 °C |
| CCn1c(-c2ccc(-n3ccnc3)cc2)cnc1[C@H](Cc1ccccn1)N(C=O)c1cc2cc(C(F)(F)F)ccc2o1 [Example 29, (1S)-N-[1-[1-Ethyl-5-[4-(1-imidazolyl)phenyl]imidazol-2-yl]-2-(2-pyridyl)ethyl][5-(trifluoromethyl)benzo[b]furan-2-yl]formamide] | 85 to 89 °C |
| CCCn1c(-c2ccc(-n3ccnc3)cc2)cnc1[C@H](Cc1ccccn1)N(C=O)c1cc2cc(C(F)(F)F)ccc2o1 [Example 30, (1S)-N-[1-[5-[4-(1-Imidazolyl)phenyl]-1-propylimidazol-2-yl]-2-(2-pyridyl)ethyl][5-(trifluoromethyl)benzo[b]furan-2-yl]formamide] | 92 to 98 °C |
| Cn1c(-c2ccc(-n3cnc4ccccc43)cc2)cnc1[C@H](Cc1ccccn1)N(C=O)c1cc2ccccc2[nH]1 [Example 31, (1S)-N-[1-[5-[4-(1-Benzimidazolyl)phenyl]-1-methylimidazol-2-yl]-2-(2-pyridyl)ethyl](indol-2-yl)formamide] | 233 to 237 °C |
